Assay results reported in ChEMBL document CHEMBL1201862, “PubChem BioAssay data set” (2004).
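Assay format: 96-well plates, 48-hour exposure. GI50 = concentration required for 50% inhibition of growth.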 The source made the active and inactive calls. Rule as the data show it: active = GI50 up to about 1.1 µM and inactive = higher.

Assays:
Assay in all cases: NCI anticancer screen, dose series, 48 h
HL-60 = tested on: HL-60
EKVX = tested on: EKVX
OVCAR-5 = tested on: OVCAR-5
OVCAR-8 = tested on: OVCAR-8
MOLT-4 = tested on: MOLT-4
SF-268 = tested on: SF-268
UACC-257 = tested on: UACC-257
IGROV-1 = tested on: IGROV-1
SNB-75 = tested on: SNB-75
U-251 = tested on: U-251
TK-10 = tested on: TK-10
SK-MEL-28 = tested on: SK-MEL-28
UACC-62 = tested on: UACC-62
CAKI-1 = tested on: CAKI-1
HCT-15 = tested on: HCT-15

Compound | GI50 (HL-60) | GI50 (EKVX) | GI50 (OVCAR-5) | GI50 (OVCAR-8) | GI50 (MOLT-4) | GI50 (SF-268) | GI50 (UACC-257) | GI50 (IGROV-1) | GI50 (SNB-75) | GI50 (U-251) | GI50 (TK-10) | GI50 (SK-MEL-28) | GI50 (UACC-62) | GI50 (CAKI-1) | GI50 (HCT-15)
O=C1/C(=C/c2cccc([N+](=O)[O-])c2)COc2ccc(Br)cc21 | 17.7 µM (inactive) | > 100 µM (inactive) | > 100 µM (inactive) | > 100 µM (inactive) | 26.9 µM (inactive) | > 100 µM (inactive) | > 100 µM (inactive) | > 100 µM (inactive) | 55.7 µM (inactive) | > 100 µM (inactive) | > 100 µM (inactive) | > 100 µM (inactive) |  |  | 
O=C(Nc1cccs1)c1c(O)[nH]c(=S)[nH]c1=O |  |  | > 100 µM (inactive) | > 100 µM (inactive) | > 100 µM (inactive) | > 100 µM (inactive) | > 100 µM (inactive) | > 100 µM (inactive) |  | > 100 µM (inactive) | > 100 µM (inactive) | > 100 µM (inactive) | > 100 µM (inactive) | > 100 µM (inactive) | > 100 µM
CC(=O)NNc1nc(C)c(C(=O)NNC(=O)C(=O)Nc2c(C)cccc2C(C)C)s1 | 46.7 µM (inactive) | > 100 µM (inactive) | > 100 µM (inactive) | 94.2 µM (inactive) | 44.4 µM (inactive) | 59.6 µM (inactive) | 64.3 µM (inactive) | > 100 µM (inactive) |  | 5.97 µM (inactive) | > 100 µM (inactive) | > 100 µM (inactive) | 59.7 µM (inactive) |  | 60.3 µM
COCC1N=C(c2cc(OC)c(OC)c(OC)c2-c2cc3c(cc2[C@H](C)O)OCO3)O[C@H]1c1ccccc1 (stereo partly drawn) | > 10 µM (inactive) | > 100 µM (inactive) |  | 81.5 µM (inactive) | 41.6 µM (inactive) |  |  | > 100 µM (inactive) | 49.2 µM (inactive) | 65.2 µM (inactive) | > 100 µM (inactive) | 59.2 µM (inactive) | > 100 µM (inactive) |  | 56.9 µM
CC(=O)OC1COC(N2C(=O)/C(=N\NC(N)=S)c3cc(Br)ccc32)C(OC(C)=O)C1OC(C)=O (stereo not drawn) | 25.6 µM (inactive) | 56.1 µM (inactive) | > 100 µM (inactive) | 49.1 µM (inactive) | 39.3 µM (inactive) | 38.5 µM (inactive) | > 100 µM (inactive) | > 100 µM (inactive) |  | 53.5 µM (inactive) | > 100 µM (inactive) | 25.4 µM (inactive) | 35.6 µM (inactive) | > 100 µM (inactive) | 61.9 µM
COc1cc2c(c3oc(-c4ccc5c(c4)OCO5)c(O)c(=O)c13)CCC(C)(C)O2 | > 100 µM (inactive) | > 100 µM (inactive) |  | > 100 µM (inactive) | > 100 µM (inactive) |  |  | > 100 µM (inactive) | 12.3 µM (inactive) |  | > 100 µM (inactive) | > 100 µM (inactive) | > 100 µM (inactive) |  | > 100 µM
Cc1ccc(C(=O)C(C)N)cc1C (stereo not drawn) |  | > 100 µM (inactive) |  | > 100 µM (inactive) | > 100 µM (inactive) | > 100 µM (inactive) | > 100 µM (inactive) | > 100 µM (inactive) | > 100 µM (inactive) | > 100 µM (inactive) | > 100 µM (inactive) | > 100 µM (inactive) | > 100 µM (inactive) | > 100 µM (inactive) | 
COC(=O)C(=Cc1cc(OC)c(OC)c(OC)c1-c1cc2c(cc1C(C)=O)OCO2)C(=O)OC | 34.2 µM (inactive) | 72.8 µM (inactive) | 43 µM (inactive) | 59 µM (inactive) | 52.2 µM (inactive) | 57.1 µM (inactive) | 52 µM (inactive) | 50.1 µM (inactive) |  | 37.2 µM (inactive) | 77.8 µM (inactive) | 33.1 µM (inactive) | 32.6 µM (inactive) | 54.3 µM (inactive) | 24.2 µM
